The record followed here is patent publication US20020051811A1, “Method and composition for masking mineral taste” (priority 1999, published 2002).

Marks after values point to notes of the source that are not given here. Residues, ends and D or L forms follow the SMILES beside them.

Common to all, as to type: in vivo
Test [1] in a line: AK added at low levels to solutions containing KCl, perceived bitter aftertaste. The conditions noted are these: 1 to 5 mg/100 ml. Here is the method: The level of AK used was 1 to 5 mg/100 ml, which is equivalent in sweetness contribution to between 0.2% and 1% sucrose. This characteristic is specific to AK, and is not noted when […].

Test [2] in a line: Expert panel evaluation of taste modifiers on taste of KCl solutions. Conditions: 1.26% KCl, score 0-8. The procedure:
Additional testing was conducted, comparing the absence of taste modifiers with the three taste modifiers of the invention, both separately, and in combinations (AK and glycyrrhizin) (AK and tannic acid) (glycyrrhizin and tannic acid). […] In this study, again, 1.26% KCl was prepared, and used as the test medium for all experiments. The aqueous solution was evaluation by an expert panel for each of the taste attributes. The panel consisted of eight individuals who were screened for their taste acuity and trained in the use of the score sheet. The score sheet employed by the panel appears as Table III hereto.

Test [3] is described as follows: Effect of glycyrrhizin on potassium-containing beverages (taste scores). The conditions noted are these: for effect on aftertaste of KCl: 20-40 mg/100 cc, beverage containing 2.52% KCl by weight; for Bitter / Metallic / Salt: 2.52% KCl beverage, scale 0 to 8. From the text: The effect of glycyrrhizin on potassium-containing beverages was studied.
Test [4] can be described thus: Effect of tannic acid on potassium-containing beverages (taste scores). The conditions noted are these: for Aftertaste / Bitter / Salt: 1.26% KCl beverage, scale 0 to 8. The text has this: The effect of tannic acid on potassium-containing beverages was studied.

For `COC(=O)[C@H](Cc1ccccc1)NC(=O)[C@@H](N)CC(=O)O` [aspartame] (HELM PEPTIDE1{D.F.[CO[*:1]]}$$$$V2.0), the “effect on perceived bitter aftertaste of KCl solutions” value (from here on “effect on perceived bitter aftertaste”) in test [1] was “not noted”.

Turning to `CC1(C)[C@@H](O[C@H]2O[C@H](C(=O)O)[C@@H](O)[C@H](O)[C@H]2O[C@@H]2O[C@H](C(=O)O)[C@@H](O)[C@H](O)[C@H]2O)CC[C@]2(C)[C@H]3C(=O)C=C4[C@@H]5C[C@@](C)(C(=O)O)CC[C@]5(C)CC[C@@]4(C)[C@]3(C)CC[C@@H]12` [glycyrrhizin], the Bitter is 2.0* in test [2] (modifier 5.0 mg/100 cc); 3.3* in test [2] (modifier 10.0 mg/100 cc); 2.3* in test [2] (modifier 20.0 mg/100 cc); 2.5 in test [3] (+20 mg/100 cc glycyrrhizin); 2.5 in test [3] (+40 mg/100 cc glycyrrhizin). Besides, the values for the Other in test [2] (modifier 5.0 mg/100 cc), in test [2] (modifier 10.0 mg/100 cc) and in test [2] (modifier 20.0 mg/100 cc) were 1.0*, 2.0* and 2.0*, respectively. In addition, the Salt is reported as 3.5 in test [2] (modifier 5.0 mg/100 cc); 2.3 in test [2] (modifier 10.0 mg/100 cc); 2.0 in test [2] (modifier 20.0 mg/100 cc); 2.5 in test [3] (+20 mg/100 cc glycyrrhizin); 2.0 in test [3] (+40 mg/100 cc glycyrrhizin). For the same compound, the Sour in test [2] (modifier 5.0 mg/100 cc), in test [2] (modifier 10.0 mg/100 cc) and in test [2] (modifier 20.0 mg/100 cc) was 0.0 each time. For the same compound, the Sweet in test [2] (modifier 5.0 mg/100 cc) was 0.0; in test [2] (modifier 10.0 mg/100 cc), 0.0; in test [2] (modifier 20.0 mg/100 cc), 0.5. The “effect on aftertaste of KCl” value in test [3] is “effective in reducing the aftertaste of KCl”; in test [3] (listed as Glycyrrhizin) it was “effective in reducing the bitter and metallic aftertaste of KCl”. Moreover, the Metallic in test [3] (+20 mg/100 cc glycyrrhizin) and in test [3] (+40 mg/100 cc glycyrrhizin) was 2.0 each time.

Consider `O=C(OC[C@H]1O[C@@H](OC(=O)c2cc(O)c(O)c(OC(=O)c3cc(O)c(O)c(O)c3)c2)[C@H](OC(=O)c2cc(O)c(O)c(OC(=O)c3cc(O)c(O)c(O)c3)c2)[C@@H](OC(=O)c2cc(O)c(O)c(OC(=O)c3cc(O)c(O)c(O)c3)c2)[C@@H]1OC(=O)c1cc(O)c(O)c(OC(=O)c2cc(O)c(O)c(O)c2)c1)c1cc(O)c(O)c(OC(=O)c2cc(O)c(O)c(O)c2)c1` [tannic acid], for which the Aftertaste in test [4] (+5 mg/100 cc tannic acid), in test [4] (+10 mg/100 cc tannic acid) and in test [4] (+50 mg/100 cc tannic acid) was 1.0 throughout. Also, the Bitter was 1.0 in test [4] (+5 mg/100 cc tannic acid); 1.0 in test [4] (+10 mg/100 cc tannic acid); 2.5 in test [4] (+50 mg/100 cc tannic acid); 3.0* in test [2] (modifier 1.0 mg/100 cc); 2.0* in test [2] (modifier 5.0 mg/100 cc); 2.0* in test [2] (modifier 10.0 mg/100 cc). The Salt is recorded as 1.5 in test [4] (+5 mg/100 cc tannic acid); 1.0 in test [4] (+10 mg/100 cc tannic acid); 1.5 in test [4] (+50 mg/100 cc tannic acid); 3.3 in test [2] (modifier 1.0 mg/100 cc); 3.8 in test [2] (modifier 5.0 mg/100 cc); 2.0 in test [2] (modifier 10.0 mg/100 cc). Further, the “effect on bitter aftertaste and salty taste” value in test [4] (beverage containing 1.26% KCl) is given as “reduces the level of bitter aftertaste without increasing the salty taste”. Moreover, in test [4] (levels as low as 5 mg/100 cc, beverage containing 1.26% KCl by weight), the “effect on aftertaste of KCl” value was “effective in reducing and eliminating the aftertaste of KCl”. In addition, the Other in test [2] (modifier 1.0 mg/100 cc) is recorded as 3.3*; in test [2] (modifier 5.0 mg/100 cc), 3.0*; in test [2] (modifier 10.0 mg/100 cc), 2.0*. Besides, the Sour in test [2] (modifier 1.0 mg/100 cc), in test [2] (modifier 5.0 mg/100 cc) and in test [2] (modifier 10.0 mg/100 cc) was 0.0 each time. The Sweet in test [2] (modifier 1.0 mg/100 cc), in test [2] (modifier 5.0 mg/100 cc) and in test [2] (modifier 10.0 mg/100 cc) was 0.0 each time.

Regarding `CC1=CC(=O)NS(=O)(=O)O1` [Acesulfame-K, acesulfame potassium], in test [2] (modifier 2.5 mg/100 cc), the Bitter was 3.0*, the Other is 2.8*, the Salt is listed as 2.8 and the Sour is reported as 0.0. In addition, the Sweet in test [2] (modifier 2.5 mg/100 cc) was 0.0. Also, in test [2] (modifier 5.0 mg/100 cc), the Bitter is given as 2.3*, the Other is 2.2*, the Salt is reported as 2.3 and the Sour came out at 0.0. The Sweet in test [2] (modifier 5.0 mg/100 cc) came to 0.0. In addition, in test [2] (modifier 7.5 mg/100 cc), the Bitter was 1.8*, the Other was 0.5*, the Salt is given as 1.5* and the Sour was determined as 0.0. The Sweet in test [2] (modifier 7.5 mg/100 cc) is given as 1.3. Further, the “effect on perceived bitter aftertaste” value in test [1] is on record as “reduced the perceived bitter aftertaste”.

For the compound `O=C1NS(=O)(=O)c2ccccc21` [saccharin], the “effect on perceived bitter aftertaste” value in test [1] is “not noted”.
